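48-hour exposure; five concentrations; linearly interpolated endpoints. Here, GI50 denotes the concentration required for 50% inhibition of growth. TGI is the concentration that stops growth completely.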
What was measured:
Assay in all cases: NCI anticancer screen, dose series, 48 h
[1] = system: U251 CNS
[2] = system: SNB-75 CNS
[3] = system: LOX IMVI melanoma
[4] = system: HT29 colon
[5] = system: EKVX NSCLC
[6] = system: RPMI-8226 leukemia
[7] = system: 786-0 renal
[8] = system: UO-31 renal
[9] = system: TK-10 renal
[10] = system: T-47D breast

| SMILES | TGI [1] [µM] | TGI [2] [µM] | TGI [3] [µM] | TGI [4] [µM] | TGI [5] [µM] | TGI [6] [µM] | TGI [7] [µM] | TGI [8] [µM] | TGI [9] [µM] | GI50 [1] [µM] | GI50 [2] [µM] | GI50 [3] [µM] | GI50 [10] [µM] | TGI [10] [µM] | GI50 [5] [µM] | GI50 [6] [µM] | GI50 [7] [µM] | GI50 [8] [µM] | GI50 [4] [µM] | GI50 [9] [µM] |
| --- | --- | --- | --- | --- | --- | --- | --- | --- | --- | --- | --- | --- | --- | --- | --- | --- | --- | --- | --- | --- |
| O=C(/C=C/c1c(O)ccc2ccccc12)c1ccccc1 | > 100 | 4.52 | 44.9 | 30.2 | > 100 | 80.6 | > 100 | > 100 | > 100 | – | – | – | – | – | – | – | – | – | – | – |
| O=C1NC2OCC(O)C(O)C2O1 (configuration not stated) | > 100 | > 100 | > 100 | > 100 | > 100 | – | > 100 | > 100 | > 100 | – | – | – | – | – | – | – | – | – | – | – |
| CCc1ccc(Nc2ccc([N+](=O)[O-])cc2[N+](=O)[O-])cc1 | > 100 | > 100 | – | > 100 | > 100 | > 100 | > 100 | > 100 | > 100 | – | – | – | – | – | – | – | – | – | – | – |
| CC[CH2][Sn]([Cl])([Cl])[CH2]CC.Oc1ccccc1C=NCCN=Cc1ccccc1O | 12.5 | 16.1 | 28 | – | 27.3 | 8.33 | 20.7 | 21.5 | – | 3.11 | 3.34 | 14.4 | 1.09 | 2.6 | 12.9 | 3.35 | 7.91 | 5.45 | – | – |
| CC(C)c1cc2c(O)c(c1)Cc1cc(C(C)C)cc(c1O)Cc1cc(C(C)C)cc(c1O)Cc1cc(C(C)C)cc(c1O)C2 | > 100 | > 100 | > 100 | > 100 | > 100 | > 100 | > 100 | > 100 | > 100 | – | – | – | – | – | – | – | – | – | – | – |
| CNc1nc(N)c(N=O)c(Nc2ccc(Br)cc2)n1 | > 100 | > 100 | > 100 | > 100 | > 100 | > 100 | > 100 | > 100 | > 100 | – | – | – | – | – | – | – | – | – | – | – |
| COC(=O)C(=O)C(C(=O)C=C(C)C)C(=O)C(=O)Nc1ccc(C)cc1C (configuration not stated) | > 100 | > 100 | > 100 | > 100 | > 100 | > 100 | > 100 | > 100 | > 100 | – | – | – | – | – | – | – | – | – | – | – |
| COC(=O)C12C3C4C1C1C2C3C41NC(=O)c1csc([C@@H](C[C@H](C(C)C)N(C)C(=O)[C@@H](NC(=O)[C@H]2CCCCN2C)C2CC2)OC(C)=O)n1 (some centres not stated) | > 33.3 | > 33.3 | > 33.3 | > 33.3 | > 33.3 | > 33.3 | > 33.3 | > 33.3 | > 33.3 | 0.0527 | 0.00595 | 0.00882 | – | – | 0.08 | 0.00696 | 0.088 | 0.35 | 0.00658 | 4.39 |
| COc1ccc(CNc2nc3cc(C(F)(F)F)ccc3nc2C)cc1OC | > 100 | 61.4 | 68.7 | > 100 | 72.6 | 97 | 58.9 | 65.1 | 87.8 | – | – | – | – | – | – | – | – | – | – | – |
| COc1ccc2nc3cc(Cl)ccc3c(NCCN)c2c1 | 3.09 | – | – | – | – | 5.07 | 3.05 | 2.95 | 3.18 | 1.71 | – | – | 1.83 | 3.59 | – | 2.04 | 1.63 | 1.5 | – | 1.76 |

— PubChem BioAssay (NCI)
